Reference: PMC3646991 (Investigational new drugs, 2012)
Several values for one entry are separate records, joined by “and”; a condition that tells them apart may be missing. Identical values can stand only once.

Legend:
[1] = cited from earlier work
[2] = test system: tumor cell lines; conditions: read-out: in vitro IC50 for tumor cell lines; cited from earlier work
[3] = test system: advanced solid tumors; assay: Tumor response; type: in vivo, human
[4] = triapine 0.01–1 mg/mL in 0.9 % sodium chloride, protected from light, room temperature or 2–8°C; cited from earlier work
[5] = test system: patients with advanced solid tumors; assay: Phase I dose escalation: dose-limiting toxicities, MTD and adverse events
[6] = test system: patients with advanced solid tumors; conditions: human, in vivo, 4 weeks
[7] = test system: human ribonucleotide reductase M2 subunit (hRRM2); assay: Circulating serum hRRM2 by ELISA; type: in vivo; conditions: during treatment cycles 1 and 2, 21 of 28 patients
[8] = Steady-state plasma triapine; type: in vivo, human; conditions: for clearance: human, plasma
[9] = of 15 patients with stable disease
[10] = of 30 evaluable patients, triapine + FDR gemcitabine
[11] = of 30 evaluable patients, triapine + FDR gemcitabine, RECIST 1.0
[12] = 36 patients, all dose levels, triapine + FDR gemcitabine
[13] = Arm A and B combined, dose 160, N=2, individual values

Nc1ccn([C@@H]2O[C@H](CO)[C@@H](O)C2(F)F)c(=O)n1 [gemcitabine]
steady-state plasma levels ([1]; gemcitabine at fixed-dose-rate 10 mg/m^2/min): 15 to 20 µmol/L | plasma gemcitabine concentration above which dFdCTP accumulation is saturated ([1]; peripheral blood mononuclear cells and circulating leukemic blasts): 15 to 20 µmol/L

NC(=S)NN=Cc1ncccc1N [triapine, 3-Aminopyridine-2-carboxaldehyde thiosemicarbazone]
IC50 [2]: 1 to 2 µM | median time to progression ([3]; 15 patients with stable disease, 95 % CI 84–115 days): 111 days | disease control rate ([3]; 30 evaluable patients, SD + PR, triapine + FDR gemcitabine): 53% | patients with prolonged stable disease more than 3 months [3, 9]: 12 patients | stable-disease patients who had previously progressed on gemcitabine [3, 9]: 7 patients | partial response (number of patients) [3, 10]: 1 patients | progressive disease (number of patients) [3, 10]: 14 patients | stable disease (number of patients) [3, 10]: 15 patients | partial response [3, 11]: 3% | stable disease [3, 11]: 50% | median time to tumor progression ([3]; patients with SD): ~4 months | stability of admixture [4]: 96 h | Flu-Like Syndrome, Grade 1/2 [5, 12]: 4 (11) N (%) | Flu-Like Syndrome, Grade 3 [5, 12]: 0 N (%) | Flu-Like Syndrome, Grade 4 [5, 12]: 0 N (%) | Infection, Grade 3 [5, 12]: 3 (8) N (%) | Infection, Grade 4 [5, 12]: 0 N (%) | MTD (maximum tolerated dose) ([5]; triapine 24-hour infusion immediately followed by gemcitabine 1000 mg/m^2 (100-minute infusion), every 2 weeks of a 4-week cycle): 90 mg | recommended phase II dose (RP2D) [6]: 90 mg | patients with decline in hRRM2 levels [7]: 75% | Css ([8]; Arm A and B combined, 31 patients, 75 to 160 mg over 24-hour i.v. infusion Day 1, mean ± SD): 400 ± 140 nM | Css ([8]; Arm A and B combined, dose 75, N=5, mean ± SD): 370 ± 50 nM | Css ([8]; Arm A and B combined, dose 90, N=15, mean ± SD): 380 ± 180 nM | Css ([8]; Arm A and B combined, dose 120, N=9, mean ± SD): 440 ± 120 nM | CL [8, 13]: 42.80 L/h | Css [8, 13]: 520 nM and 460 nM | Css (range) ([8]; Arm A, 75 to 160 mg): 240 to 820 nM | Css ([8]; Arm A, all doses 75 to 160 mg, mean ± SD): 430 ± 140 nM | Css ([8]; Arm A, dose 75 (head prints mg/m^2), 24-h i.v. infusion, day 1 cycle 1, N=1): 410 nM | Css ([8]; Arm A, dose 90, 24-h i.v. infusion, N=5, mean ± SD): 450 ± 230 nM | Css ([8]; Arm A, dose 120, 24-h i.v. infusion, N=5, mean ± SD): 390 ± 90 nM | Css ([8]; Arm A, dose 160, 24-h i.v. infusion, N=2, individual values): 520 nM and 460 nM | CL ([8]; Arm A, dose 160, N=2, individual values): 42.80 L/h | Css (range) ([8]; Arm B, 75 to 120 mg): 190 to 720 nM | Css ([8]; Arm B, all doses 75 to 120 mg, mean ± SD): 380 ± 140 nM | Css ([8]; Arm B, dose 75, 24-h i.v. infusion, N=4, mean ± SD): 360 ± 50 nM | Css ([8]; Arm B, dose 90, 24-h i.v. infusion, N=10, mean ± SD): 350 ± 150 nM | Css ([8]; Arm B, dose 120, 24-h i.v. infusion, N=4, mean ± SD): 470 ± 170 nM | mean Css ([8]; females, n = 18): 440 ± 160 nM | clearance ([8]; intravenous, 75 mg, CL, Arm B, dose 75, N=4, mean ± SD): 431 mL/min | clearance ([8]; intravenous, 90 mg, CL, Arm A, dose 90, N=5, mean ± SD): 497 mL/min | clearance ([8]; intravenous, 90 mg, CL, Arm B, dose 90, N=10, mean ± SD): 613 mL/min | clearance ([8]; intravenous, 120 mg, CL, Arm A and B combined, dose 120, N=9, mean ± SD): 596 mL/min | clearance ([8]; intravenous, 120 mg, CL, Arm A, dose 120, N=5, mean ± SD): 653 mL/min | clearance ([8]; intravenous, 120 mg, CL, Arm B, dose 120, N=4, mean ± SD): 560 mL/min | clearance ([8]; intravenous, 160 mg, CL, Arm A, dose 160, N=2, individual values): 635 mL/min | clearance ([8]; intravenous, CL (range), Arm A and B combined, 31 patients, 75 to 160 mg): 226 to 899 mL/min | clearance ([8]; intravenous, CL (range), Arm A, 75 to 160 mg): 226 to 804 mL/min | clearance ([8]; intravenous, CL (range), Arm B, 75 to 120 mg): 265 to 899 mL/min | clearance ([8]; intravenous, CL, Arm A, all doses 75 to 160 mg, mean ± SD): 580 mL/min | clearance ([8]; intravenous, CL, Arm B, all doses 75 to 120 mg, mean ± SD): 561 mL/min | clearance ([8]; iv, CL, Arm A and B combined, 31 patients, 75 to 160 mg over 24-hour i.v. infusion Day 1, mean ± SD): 562 mL/min | mean Css ([8]; males, n = 13): 330 ± 80 nM | variability of Css and CL (coefficient of variation) ([8]; within and between dose groups): approximately 30%
